Strand notation (5' to 3'): a small letter for the sugar, then the base; units joined by * are phosphorothioate-linked, units joined directly phosphodiester-linked; [ ] holds rarer units or linkages, { } end groups; capitals alone tell only the bases. e = 2'-O-(2-methoxyethyl) (MOE); [5mC] = 5-methylcytosine; d = 2'-deoxy (DNA)
These substances were tested on rat RANKL mRNA (assay: Antisense inhibition of rat RANKL mRNA levels in UMR-106 cells, quantitative real-time PCR (Table 3)). Conditions: averages from three experiments.
Assay type: cell-based
Parameters: concentration or dose not given beside the values
Summary of the method: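 UMR-106 cells transfected with antisense oligonucleotides (5-methylcytidine throughout) in triplicate, harvested 16-24 h after treatment. RANKL mRNA quantified by real-time RT-PCR with a FAM/TAMRA probe, using rat GAPDH (JOE/TAMRA probe) as the reference.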

| Substance | % INHIB (inhibition of rat RANKL mRNA levels) |
| --- | --- |
| ggtacttgccgtagtctcgg (antisense eG*eG*eT*eA*e[5mC]*dT*dT*dG*d[5mC]*d[5mC]*dG*dT*dA*dG*dT*e[5mC]*eT*e[5mC]*eG*eG) [ISIS 286586, 2′-MOE gapmer targeted to rat RANKL] | at least 40% |
| 286606 (antisense eT*eG*eT*eA*eA*dT*dT*d[5mC]*d[5mC]*d[5mC]*dT*dT*dT*dG*d[5mC]*eA*e[5mC]*eG*eG*e[5mC]) [compound 286606] | 37% |
| 286620 (antisense eA*eT*e[5mC]*eT*eT*dG*dG*dT*dT*dA*dA*d[5mC]*d[5mC]*d[5mC]*dT*eT*eA*eG*eT*eT) [compound 286620] | 48% |
| caggaacagagcgatgctgc (e[5mC]*eA*eG*eG*eA*dA*d[5mC]*dA*dG*dA*dG*d[5mC]*dG*dA*dT*eG*e[5mC]*eT*eG*e[5mC]; antisense) [ISIS 286590, 2′-MOE gapmer targeted to rat RANKL] | at least 40% |
| 286632 (antisense e[5mC]*eT*eT*eG*eG*dG*dA*dT*dT*dT*dT*dG*dA*dT*dG*e[5mC]*eT*eG*eG*eT) [compound 286632] | 51% |
| 286643 (antisense eG*e[5mC]*eA*eT*eA*dT*d[5mC]*d[5mC]*dA*dT*dG*d[5mC]*dT*dA*dA*eG*eG*e[5mC]*eT*e[5mC]) [compound 286643] | 69% |
| 286654 (eA*e[5mC]*eT*eT*eA*dT*dT*dT*dG*d[5mC]*dA*dG*dG*dT*dT*e[5mC]*e[5mC]*eA*eG*e[5mC]; antisense) [compound 286654] | 55% |
| 286622 (antisense eA*eA*eT*eA*eG*dA*dA*dG*d[5mC]*d[5mC]*dA*dT*d[5mC]*dT*dT*eG*eG*eT*eT*eA) [compound 286622] | 12% |
| 286602 (antisense eA*eA*e[5mC]*e[5mC]*eT*dG*dT*dA*dT*dT*dT*dT*d[5mC]*dA*d[5mC]*eG*eG*eA*eG*eT) [compound 286602] | 48% |
| acccttagttttccgttgct (eA*e[5mC]*e[5mC]*e[5mC]*eT*dT*dA*dG*dT*dT*dT*dT*d[5mC]*d[5mC]*dG*eT*eT*eG*e[5mC]*eT; antisense) [ISIS 286618, 2′-MOE gapmer targeted to rat RANKL] | at least 40% |
| 286605 (antisense eT*eT*eT*eG*e[5mC]*dA*d[5mC]*dG*dG*d[5mC]*d[5mC]*d[5mC]*d[5mC]*dT*dT*eG*eA*eA*eA*eG) [compound 286605] | 53% |
| 286650 (antisense eG*eT*eG*eG*e[5mC]*dA*d[5mC]*dA*dG*dG*d[5mC]*d[5mC]*d[5mC]*dA*dG*eG*eA*eG*eT*eT) [compound 286650] | 53% |
| 286638 (antisense eA*eG*eT*eA*e[5mC]*dG*dT*d[5mC]*dG*d[5mC]*dA*dT*d[5mC]*dT*dT*eG*eA*eT*e[5mC]*e[5mC]) [compound 286638] | 26% |
| 286636 (antisense eT*eG*eG*eA*eA*dT*dA*dA*dA*dA*dG*dT*dG*dG*dA*eA*eT*eT*e[5mC]*eA) [compound 286636] | 21% |
| tctgttaggatccatctgcg (eT*e[5mC]*eT*eG*eT*dT*dA*dG*dG*dA*dT*d[5mC]*d[5mC]*dA*dT*e[5mC]*eT*eG*e[5mC]*eG; antisense) [ISIS 286596, 2′-MOE gapmer targeted to rat RANKL] | at least 40% |
| 286624 (antisense e[5mC]*eA*eG*eG*eT*dA*dA*dT*dA*dG*dA*dA*dG*d[5mC]*d[5mC]*eA*eT*e[5mC]*eT*eT) [compound 286624] | 22% |

| Substance | % INHIB (inhibition of rat RANKL mRNA levels) |
| --- | --- |
| 286642 (antisense eT*e[5mC]*eA*eG*eT*d[5mC]*dT*dA*dT*dG*dT*d[5mC]*dT*dT*dG*eA*eA*e[5mC]*eT*eT) [compound 286642] | 41% |
| acagagcgatgctgcagacc (antisense eA*e[5mC]*eA*eG*eA*dG*d[5mC]*dG*dA*dT*dG*d[5mC]*dT*dG*d[5mC]*eA*eG*eA*e[5mC]*e[5mC]) [ISIS 286589, 2′-MOE gapmer targeted to rat RANKL] | at least 40% |
| tgtggccccacaatgtgttg (eT*eG*eT*eG*eG*d[5mC]*d[5mC]*d[5mC]*d[5mC]*dA*d[5mC]*dA*dA*dT*dG*eT*eG*eT*eT*eG; antisense) [ISIS 286607, 2′-MOE gapmer targeted to rat RANKL] | at least 40% |
| ttttgtacaacgtgggccac (eT*eT*eT*eT*eG*dT*dA*d[5mC]*dA*dA*d[5mC]*dG*dT*dG*dG*eG*e[5mC]*e[5mC]*eA*e[5mC]; antisense) [ISIS 286646, 2′-MOE gapmer targeted to rat RANKL] | at least 40% |
| gtggcacaggcccaggagtt (eG*eT*eG*eG*e[5mC]*dA*d[5mC]*dA*dG*dG*d[5mC]*d[5mC]*d[5mC]*dA*dG*eG*eA*eG*eT*eT; antisense) [ISIS 286650, 2′-MOE gapmer targeted to rat RANKL] | at least 40% |
| accatcagctgaagatagtc (eA*e[5mC]*e[5mC]*eA*eT*d[5mC]*dA*dG*d[5mC]*dT*dG*dA*dA*dG*dA*eT*eA*eG*eT*e[5mC]; antisense) [ISIS 286629, 2′-MOE gapmer targeted to rat RANKL] | at least 40% |
| gcgtacaggtaatagaagcc (eG*e[5mC]*eG*eT*eA*d[5mC]*dA*dG*dG*dT*dA*dA*dT*dA*dG*eA*eA*eG*e[5mC]*e[5mC]; antisense) [ISIS 286625, 2′-MOE gapmer targeted to rat RANKL] | at least 40% |
| tcagtctatgtcttgaactt (eT*e[5mC]*eA*eG*eT*d[5mC]*dT*dA*dT*dG*dT*d[5mC]*dT*dT*dG*eA*eA*e[5mC]*eT*eT; antisense) [ISIS 286642, 2′-MOE gapmer targeted to rat RANKL] | at least 40% |
| 286608 (antisense e[5mC]*eA*eA*eA*e[5mC]*dG*dG*d[5mC]*dT*dG*dA*dG*d[5mC]*d[5mC]*dT*e[5mC]*eA*eG*eG*e[5mC]) [compound 286608] | 25% |
| 286634 (antisense eA*eA*eT*eT*e[5mC]*dA*dG*dA*dA*dT*dT*d[5mC]*d[5mC]*d[5mC]*dT*eG*eA*e[5mC]*e[5mC]*eA) [compound 286634] | 21% |
| aaaccatcatttctctgcaa (eA*eA*eA*e[5mC]*e[5mC]*dA*dT*d[5mC]*dA*dT*dT*dT*d[5mC]*dT*d[5mC]*eT*eG*e[5mC]*eA*eA; antisense) [ISIS 286653, 2′-MOE gapmer targeted to rat RANKL] | at least 40% |
| 286609 (antisense eG*e[5mC]*eA*eG*e[5mC]*dA*dT*dT*dG*dA*dT*dG*dG*dT*dG*eA*eG*eG*eT*eG) [compound 286609] | 17% |
| 286633 (antisense e[5mC]*e[5mC]*eA*eG*eT*dT*d[5mC]*dT*dT*dA*dG*dT*dG*d[5mC]*dT*e[5mC]*e[5mC]*e[5mC]*e[5mC]*e[5mC]) [compound 286633] | 4% |
| atcttggttaacccttagtt (eA*eT*e[5mC]*eT*eT*dG*dG*dT*dT*dA*dA*d[5mC]*d[5mC]*d[5mC]*dT*eT*eA*eG*eT*eT; antisense) [ISIS 286620, 2′-MOE gapmer targeted to rat RANKL] | at least 40% |
| 286588 (antisense eG*e[5mC]*eG*eA*eT*dG*d[5mC]*dT*dG*d[5mC]*dA*dG*dA*d[5mC]*d[5mC]*eA*e[5mC]*e[5mC]*eT*eG) [compound 286588] | 63% |
| 286591 (antisense eA*eA*eG*eT*eA*d[5mC]*dA*dG*dG*dA*dA*d[5mC]*dA*dG*dA*eG*e[5mC]*eG*eA*eT) [compound 286591] | 17% |

Each substance was assayed on mouse RANKL mRNA (assay: Antisense inhibition of mouse RANKL mRNA levels in C2C12 cells, quantitative real-time PCR (Table 2)). Conditions: averages from three experiments.
Assay type: cell-based
Parameters: concentration or dose not given beside the values
Method: Cells were seeded into 24-well plates (Falcon-353047 at a density of ˜10,000 cells/cm^2 for use in antisense oligonucleotide transfection.
Cells are treated and data are obtained in triplicate. […] Cells were harvested 16-24 hours after oligonucleotide treatment.
PCR reagents were obtained from Invitrogen Corporation, (Carlsbad, Calif.).
Probes and primers to mouse RANKL were designed to hybridize to a mouse RANKL sequence, using published sequence information (GenBank accession number AF013170.1, incorporated herein as SEQ ID NO:ll). For mouse RANKL the PCR primers were: • forward primer: […] (SEQ ID NO:12) • reverse primer: […] (SEQ ID NO: 13) and • the PCR probe was: FAM-[…]-TAMRA (SEQ ID NO: 14) where FAM is the fluorescent reporter dye and TAMRA is the quencher dye. For mouse GAPDH the PCR primers were: • forward primer: […](SEQ ID NO:15) • reverse primer: […](SEQ ID NO:16) and the • PCR probe was: 5′ JOE-[…]-TAMRA 3′ (SEQ ID NO: 17) where JOE is the fluorescent reporter dye and TAMRA is the quencher dye.
In accordance with the present invention, a second series of antisense compounds was designed to target different regions of the mouse RANKL RNA, using published sequences (GenBank accession number AF013170.1, incorporated herein as SEQ ID NO: 11). […] All cytidine residues are 5-methylcytidines. […] If present “N.D.” indicates “no data”.

| Substance | % INHIB (inhibition of mouse RANKL mRNA levels) |
| --- | --- |
| 180789 (antisense eG*e[5mC]*eA*eG*eA*d[5mC]*dT*d[5mC]*d[5mC]*dG*d[5mC]*d[5mC]*dA*d[5mC]*dG*eG*e[5mC]*e[5mC]*e[5mC]*e[5mC]) [compound 180789] | 34% |

— US20050060764A1, “Mouse model for bone metabolism” (priority 2003, published 2005)
